The target in the assay is T1, hAT2 (Homo sapiens, UniProt P50052).
T1 construct: expressed in transfected cells; host or cells: HEK-293
T1 sequence (P50052 1-363): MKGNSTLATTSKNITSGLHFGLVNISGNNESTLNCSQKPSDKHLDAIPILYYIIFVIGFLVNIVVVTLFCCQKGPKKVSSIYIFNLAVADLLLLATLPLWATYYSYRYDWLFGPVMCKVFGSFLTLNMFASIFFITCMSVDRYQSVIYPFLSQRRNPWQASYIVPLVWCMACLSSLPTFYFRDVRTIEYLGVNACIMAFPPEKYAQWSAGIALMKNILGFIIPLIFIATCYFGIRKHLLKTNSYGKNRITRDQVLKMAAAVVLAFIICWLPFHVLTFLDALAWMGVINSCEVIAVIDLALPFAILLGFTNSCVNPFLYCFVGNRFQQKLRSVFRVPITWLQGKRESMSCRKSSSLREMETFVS
Briefly: hAT2 receptor binding assay (SPA, [125I]-Sar1-Ile8-Angiotensin II). To be noted: membrane of HEK-293 cells overexpressing hAT2; 0.1 nM 125I ligand. Here is the method: hAT2 Receptor Binding Assay
Protease inhibitor mixture, free of ethylenediaminetetraacetic acid-1 tablets (Roche #11873580001) (50 mL plus one piece)
Experimental Methods and Steps
The reference ligand PD123319 and the test compound were prepared into a 750 μM mother liquor by DMSO; each compound was prepared into a solution of 8 concentration gradients (up to a concentration of 750 μM, 3-fold dilution) and 10 μl of the solution was added to a master of a 384-well plate per well.
The SPA beads were prepared to a mother liquor of 25 mg/ml by the buffer;
The isotope [^125I]-Sar1-Ile8-Angiotensin II was prepared into a mother liquor of 50 μCi/ml by adding pure water.
The cell membrane overexpressing hAT2 in HEK-293 cells was prepared to 2.5 mg/ml by the buffer.
200 nl of compound was aspirated from the mother plate with ECHO to each well of the 384-well test plate. ZPE was added to an equal volume of DMSO. (The concentration of the test compound in the reaction was diluted by 250 times).
A 50 ml membrane solution containing 10 μg/μl of magnetic beads and 0.05 μg/μl of AT2 was prepared, placed on a shaker and uniformly mixed. (100 rpm, 30 min). The test plate finally contained an hAT2 membrane with 1.25 μg/well and magnetic beads with 250 μg/well.
A 3.2 ml membrane liquid mixture was added to the compound test plate by using a Multidrop Combi pipette, and 25 μl was added to each well.
A 0.2 nM solution was prepared with 50 μCi/ml of isotope [^125I]-Sar1-Ile8-Angiotensin II mother liquor by the buffer, and 0.2 nM of ^125I was added to the compound test plate with a Multidrop Combi pipette. A volume of 25 μl was added to each well. The final concentration of ^125I isotope is 0.1 nM.
The prepared test plate was placed on a shaker overnight at room temperature at 200 rpm.
The test plate was centrifuged with a centrifuge at 1200 rpm for 1 min.
The centrifuged test plate was read with Microbeta.
`COc1ccc2c(c1OCc1ccccc1)CC(C(=O)O)N(C(=O)C(OC1CCOCC1)c1ccccc1)C2` (single isomer, unassigned) [Compound 1]: the IC50 is 66.4 nM.
To `COc1ccc2c(c1OCc1ccccc1)CC(C(=O)O)N(C(=O)C(OC1CCOCC1)c1ccccc1)C2` (single isomer, unassigned) [Compound 2] belongs 850 nM; to `COc1ccc2c(c1OCc1ccccc1)C[C@@H](C(=O)O)N(C(=O)[C@@H](O[C@@H]1CCOC1)c1ccccc1)C2` (single isomer, unassigned) [Compound 9], 47.6 nM.
To `COc1ccc2c(c1OCc1ccccc1)C[C@@H](C(=O)O)N(C(=O)[C@H](O[C@@H]1CCOC1)c1ccccc1)C2` (single isomer, unassigned) [Compound 10] belongs 60.7 nM; to `COc1ccc2c(c1OCc1ccccc1)C[C@@H](C(=O)O)N(C(=O)[C@@H](O[C@H]1CCOC1)c1ccccc1)C2` (single isomer, unassigned) [Compound 11], over 3000 nM.
The same measure for `COc1ccc2c(c1OCc1ccccc1)C[C@@H](C(=O)O)N(C(=O)[C@H](OC1CCOC1)c1ccccc1)C2` (single isomer, unassigned) [Compound 12]: over 3000 nM; for `COc1ccc2c(c1OCc1ccccc1)C[C@@H](C(=O)O)N(C(=O)[C@@H](OC1CCC3CC31)c1ccccc1)C2` (single isomer, unassigned) [Compound 59]: 22.7 nM.
Compound `COc1ccc2c(c1OCc1ccccc1)C[C@@H](C(=O)O)N(C(=O)[C@@H](OC1CCC3CC31)c1ccccc1)C2` (single isomer, unassigned) [Compound 60] showed an IC50 of 2.5 nM.
The same measure for `COc1ccc2c(c1OCc1ccccc1)C[C@@H](C(=O)O)N(C(=O)[C@H](OC1CCC3CC31)c1ccccc1)C2` (single isomer, unassigned) [Compound 61]: 72.7 nM; for `COc1ccc2c(c1OCc1ccccc1)C[C@@H](C(=O)O)N(C(=O)[C@H](OC1CCC3CC31)c1ccccc1)C2` (single isomer, unassigned) [Compound 62]: 270 nM.
The same measure for `COCCO[C@H](C(=O)N1Cc2ccc(OC)c(OCc3ccccc3)c2C[C@H]1C(=O)O)c1ccccc1` [Compound 3]: 197 nM.
To `COCCO[C@@H](C(=O)N1Cc2ccc(OC)c(OCc3ccccc3)c2C[C@H]1C(=O)O)c1ccccc1` [Compound 4] belongs 836 nM.
In the case of `CCCCO[C@H](C(=O)N1Cc2ccc(OC)c(OCc3ccccc3)c2C[C@H]1C(=O)O)c1ccccc1` [Compound 5], the IC50 worked out at 17.7 nM.
The compound `CCCCO[C@@H](C(=O)N1Cc2ccc(OC)c(OCc3ccccc3)c2C[C@H]1C(=O)O)c1ccccc1` [Compound 6] showed an IC50 of 383 nM.
Compound `COc1ccc2c(c1OCc1ccccc1)C[C@@H](C(=O)O)N(C(=O)[C@@H](OCC(F)(F)F)c1ccccc1)C2` [Compound 7] gave an IC50 of 35.2 nM.
To `COc1ccc2c(c1OCc1ccccc1)C[C@@H](C(=O)O)N(C(=O)[C@H](OCC(F)(F)F)c1ccccc1)C2` [Compound 8] belongs 513 nM.
The same measure for `COc1ccc2c(c1OCc1ccccc1)C[C@@H](C(=O)O)N(C(=O)[C@@H](OC1COC1)c1ccccc1)C2` [Compound 13]: 154 nM; for `COc1ccc2c(c1OCc1ccccc1)C[C@@H](C(=O)O)N(C(=O)[C@H](OC1COC1)c1ccccc1)C2` [Compound 14]: over 3000 nM.
The same measure for `COc1ccc2c(c1OCc1ccccc1)C[C@@H](C(=O)O)N(C(=O)[C@@H](Oc1c(F)cc(F)cc1F)c1ccccc1)C2` [Compound 15]: 96.4 nM; for `COc1ccc2c(c1OCc1ccccc1)C[C@@H](C(=O)O)N(C(=O)[C@H](Oc1c(F)cc(F)cc1F)c1ccccc1)C2` [Compound 16]: 16.5 nM.
Turning to `COc1ccc2c(c1OCc1ccccc1)C[C@@H](C(=O)O)N(C(=O)[C@@H](Oc1ccccc1F)c1ccccc1)C2` [Compound 17], the IC50 was determined as 143 nM.
To `COc1ccc2c(c1OCc1ccccc1)C[C@@H](C(=O)O)N(C(=O)[C@H](Oc1ccccc1F)c1ccccc1)C2` [Compound 18] belongs 54.1 nM.
To `COc1ccc2c(c1OCc1ccccc1)C[C@@H](C(=O)O)N(C(=O)[C@@H](Oc1ccccc1)c1ccccc1)C2` [Compound 19] belongs 250 nM; to `COc1ccc2c(c1OCc1ccccc1)C[C@@H](C(=O)O)N(C(=O)[C@H](Oc1ccccc1)c1ccccc1)C2` [Compound 20], 176 nM; to `COc1ccc2c(c1OCc1ccccc1)C[C@@H](C(=O)O)N(C(=O)[C@@H](Oc1ccccn1)c1ccccc1)C2` [Compound 21], 195 nM.
The same measure for `COc1ccc2c(c1OCc1ccccc1)C[C@@H](C(=O)O)N(C(=O)[C@H](Oc1ccccn1)c1ccccc1)C2` [Compound 22]: 1340 nM.
`COc1ccc(O[C@H](C(=O)N2Cc3ccc(OC)c(OCc4ccccc4)c3C[C@H]2C(=O)O)c2ccccc2)cc1` [Compound 23]: the IC50 was over 3000 nM.
As to `COc1ccc(O[C@@H](C(=O)N2Cc3ccc(OC)c(OCc4ccccc4)c3C[C@H]2C(=O)O)c2ccccc2)cc1` [Compound 24], the IC50 was found to be 192 nM.
Regarding `COc1ccc2c(c1OCc1ccccc1)C[C@@H](C(=O)O)N(C(=O)[C@@H](Oc1cccs1)c1ccccc1)C2` [Compound 25], the IC50 was 72.1 nM.
The compound `COc1ccc2c(c1OCc1ccccc1)C[C@@H](C(=O)O)N(C(=O)[C@H](Oc1cccs1)c1ccccc1)C2` [Compound 26] displayed a half-maximal inhibitory concentration (IC50) of 95.1 nM.
Compound `COc1ccc2c(c1OCc1ccccc1)C[C@@H](C(=O)O)N(C(=O)[C@@H](Oc1ccc(F)cc1F)c1ccccc1)C2` [Compound 27] showed an IC50 of 245 nM.
The same measure for `COc1ccc2c(c1OCc1ccccc1)C[C@@H](C(=O)O)N(C(=O)[C@H](Oc1ccc(F)cc1F)c1ccccc1)C2` [Compound 28]: 29.8 nM; for `COc1ccc2c(c1OCc1ccccc1)C[C@@H](C(=O)O)N(C(=O)[C@@H](Oc1ccc(C#N)cc1)c1ccccc1)C2` [Compound 29]: 231 nM.
Compound `COc1ccc2c(c1OCc1ccccc1)C[C@@H](C(=O)O)N(C(=O)[C@H](Oc1ccc(C#N)cc1)c1ccccc1)C2` [Compound 30] gave an IC50 of 373 nM.
On to `COc1ccc2c(c1OCc1ccccc1)C[C@@H](C(=O)O)N(C(=O)[C@@H](Oc1ccc(F)cc1)c1ccccc1)C2` [Compound 31], for which the IC50 came out at 59.6 nM.
The compound `COc1ccc2c(c1OCc1ccccc1)C[C@@H](C(=O)O)N(C(=O)[C@H](Oc1ccc(F)cc1)c1ccccc1)C2` [Compound 32] yielded an IC50 of 78.3 nM.
`COc1ccc2c(c1OCc1ccccc1)C[C@@H](C(=O)O)N(C(=O)[C@@H](Oc1ccc(Cl)cc1)c1ccccc1)C2` [Compound 33] came in with an IC50 of 648 nM.
The same measure for `COc1ccc2c(c1OCc1ccccc1)C[C@@H](C(=O)O)N(C(=O)[C@H](Oc1ccc(Cl)cc1)c1ccccc1)C2` [Compound 34]: 227 nM; for `COc1ccc2c(c1OCc1ccccc1)C[C@@H](C(=O)O)N(C(=O)[C@@H](Oc1ccc3ccccc3c1)c1ccccc1)C2` [Compound 35]: 1240 nM.
With `COc1ccc2c(c1OCc1ccccc1)C[C@@H](C(=O)O)N(C(=O)[C@H](Oc1ccc3ccccc3c1)c1ccccc1)C2` [Compound 36], the IC50 came to 97.1 nM.
For `COc1ccc2c(c1OCc1ccccc1)C[C@@H](C(=O)O)N(C(=O)[C@H](OC1CCCC1)c1ccccc1)C2` [Compound 38], the IC50 came out at 691 nM.

Usually IC50 stands for the concentration that gives 50% inhibition. Read a high IC50 as weaker potency in that assay.

The record behind these values is patent publication US11021445B2, “Carboxylic acid derivative as AT2R receptor antagonist” (SHANDONG DANHONG PHARMACEUTICAL CO., LTD., priority 2017, dated 2021).
